Tests used:
[1] = system: naive CD4+ T cells from BALB/c mouse spleen; assay: Regulatory T-cell-inducing effect of 14-DHE on CD4+ naive T cells (Example 13); format: cell-based
Description: Naive CD4^+ T cells were isolated from BALB/c mouse spleen-derived cells using the CD4^+CD62L^+ T cell isolation kit II (mouse) (Miltenyi Biotec). CD4^+ T cells were seeded at a density of 5×10^5 cells/mL to 48-well plates (2.5×10^5 cells per well), and then 1 μg/mL anti-CD3 antibody and 0.2 μg/mL anti-CD28 antibody were added. At this time, 2 types of media (i.e., media with and without TGF-β) were used. 14-DHE was added at a concentration of 0, 50, 100, 500, and 1000 nM. Five days later, cells were recovered. The proportion of CD25^+FoxP3^+ cells in CD4^+ T cells was determined using a flow cytometer. Prior to flow cytometry, cell surface staining was performed using CD4-APC, CD25-FITC and CD3e-PerCP, cell membrane permeabilization treatment was performed using the FoxP3 staining buffer set (eBioscience), and then FoxP3-PE staining was performed.

[2] = system: multiple sclerosis model mouse (Experimental Autoimmune Encephalomyelitic; EAE); assay: Multiple sclerosis model mouse (EAE): disease score (Example 15); format: in vivo; conditions: 10 μg/animal i.p. once a day, days 7 to 18; vs vehicle group
Description: Eight-week-old female C57BL/6 mice were divided into the following 2 groups at 5 mice per group:
(2) 14-DHE Group (10 μg/Animal)
(§1) On day 0, the 35-55 peptide (MOG35-55, Operon), a glycoprotein of myelin oligodendroglial cells, as an antigen was mixed with complete Freund's adjuvant (CFA, Difco) and then the mixture was subcutaneously administered at a dose of 200 μg/animal. Subsequently, pertussis toxin (Wako Pure Chemical Industries, Japan) was intraperitoneally administered at a dose of 200 ng/animal on day 1 and day 3, thereby inducing the onset of multiple sclerosis. During days 7 to 18, 14-DHE was intraperitoneally administered at a dose of 10 μg/animal once a day. To the vehicle group, the following solvent for 14-DHE was administered: 10% ethanol (Wako Pure Chemical Industries, Japan)/10% Cremophor (Wako Pure Chemical Industries, Japan)/80% PBS (Takara, Japan).
During the experimental period (i.e., during days 0 to 20), disease score was determined based on the following criteria:
Score 1: Unable to freely move tail
Score 2: Unable to normally walk
Score 3: Paralysis of one hindlimb
Score 4: Paralysis of both hindlimbs
Score 5: Paralysis of forelimbs and hindlimbs

[3] = system: CD4+ T cells in regional lymph node cells and spleen cells of EAE mice; assay: EAE model, day 11 autopsy: CD4+ T cell proliferation (CFSE); format: in vivo, mouse
Description: as §1
Mice were autopsied on day 11 (when inflammation was thought to take place in vivo) to obtain biochemical data.
(3) Regional lymph node cells and spleen cells were stained using the CellTrace CFSE Proliferation kit (Molecular Probes). The stained cells were seeded at a concentration of 1×10^6 cells/mL and then cultured for 3 days with stimulation with 2 μM MOG. Cells were recovered, stained with CD3-PerCP and CD4-APC, and then subjected to FACS analysis. Cell proliferation was evaluated as a proportion of cells with decreased CFSE fluorescence intensity in all cells.

[4] = system: mDCs (CD11b+CD11c+B220-) of EAE mice; assay: EAE model, day 11 autopsy: mDC activation markers; format: in vivo, mouse; conditions: autopsy on day 11
Description: as §1, with “Japan). Mice were autopsied on day 11 (when inflammation was thought to take place in vivo) to obtain biochemical data. […] A gate was set on mDCs, which are CD11b^+CD11c^+B220^− cells, and I-A/I-E (MHC class II), CD86, and CD80 were measured as activation markers.” for “Japan).”

CC(C)[C@@H](C)/C=C/[C@@H](C)[C@H]1CC=C2C3=CC=C4C[C@@H](O)CC[C@]4(C)[C@H]3CC[C@@]21C [Sample 14-DHE, ergosta-5,7,14,22-tetraen-3β-ol]
effective concentration on T cells lower compared with that of DCs ([1]; T cells vs DCs (1 μM)): ≥ 20 times | proportion of CD25+FoxP3+ cells in CD4+ T cells ([1]; absence of TGF-β, 14-DHE 50-1000 nM, 5 days): no change | increase in proportion of CD25+FoxP3+ cells compared with no 14-DHE ([1]; presence of TGF-β, 14-DHE 50 nM (lowest concentration), 5 days): ≥ 5 times | accumulated disease score [2]: decreases were confirmed | incidence [2]: decreases were confirmed | maximum score [2]: decreases were confirmed | onset [2]: delayed onset | proliferation rate of CD4+ T cells in lymph node cells [3]: decreasing trend | proliferation rate of CD4+ T cells in spleen cells ([3]; with or without re-stimulation with MOG antigen): significant decrease | CD80 on mDCs, lymph node [4]: significant decrease | CD86 on mDCs, lymph node [4]: decreasing trend | I-A/I-E (MHC class II) on mDCs, lymph node [4]: decreasing trend | I-A/I-E on mDCs, spinal cord [4]: significant decrease

Reference: patent publication US9101566B2, “Fermentation product of cereal plant-derived material and immunomodulator” (KIRIN HOLDINGS KABUSHIKI KAISHA, priority 2009, dated 2015)
